Test results as given in US5310675A, “Procaryotic carbonyl hydrolases” (priority 1991, dated 1994).
*1 amine or outer side, *2 acyl side, *3 side chain or, on linkers, in order; H or OH if unused. Where a SMILES comes first, the peptide text is derived from it. The star is where a group is joined. pNA = O=[N+]([O-])c1ccc(N*)cc1; Suc = O=C(CCC(=O)[*:2])[*:1]; Bz = O=C(c1ccccc1)*

How the values were obtained:
Experiment in all cases: Kinetic parameters from progress curves, p-nitroanilide substrates
Format in all cases: biochemical
Settings in all cases: 25° C., 0.1M tris buffer, pH 8.6
[1] = molecular target: T1, B. amyloliquefaciens subtilisin variant asp+166 (D166; glycine+166 to asp) (Bacillus amyloliquefaciens, UniProt P00782, G273D)
T1 construct: codons for the mature subtilisin corresponding to that secreted by the B. amyloliquefaciens; made in house; host or cells: B. subtilis BG2036
Protocol: (§1) B. subtilis strain BG2036 obtained by the method of Example 11 was transformed by the plasmids of Examples 14, 15 or 20 and by pS4-5 as a control. Transformants were plated or cultured in shaker flasks for 16 to 48 h at 37° C. in LB media plus 12.5 μg/ml chloramphenicol. Mutant enzymatically active subtilisin was recovered by dialyzing cell broth against 0.01M sodium phosphate buffer, pH 6.2. The dialyzed broth was then titrated to pH 6.2 with 1N HCl and loaded on a 2.5×2 cm column of CM Cellulose (CM-52 Whatman). After washing with 0.01M sodium phosphate, pH 6.2, the subtilisins (except mutants at position +222) were eluted with the same buffer made 0.08N in NaCl. The mutant subtilisins at position +222 were each eluted with 0.1M sodium phosphate, pH 7.0. The purified mutant and wild type enzymes were then used in studies of oxidation stability, Km, Kcat, Kcat/Km ratio, pH optimum, and changes in substrate specificity.
(§2) Various mutants for glycine+166 were screened for modified Kcat, Km and Kcat/Km ratios. Kinetic parameters were obtained by analysis of the progress curves of the reactions. The rate of reaction was measured as a function of substrate concentration. Data was analyzed by fitting to the Michaelis-Menton equation using the non-linear regression algorithm of Marquardt (Marquardt, D. W. 1963, "J. Soc. Ind. Appl. Math." 11, 431-41).

[2] = molecular target: T2, B. amyloliquefaciens subtilisin, wild type (gly-166) (Bacillus amyloliquefaciens, UniProt P00782)
T2 construct: codons for the mature subtilisin corresponding to that secreted by the B. amyloliquefaciens; made in house; host or cells: B. subtilis BG2036 (transformed with pS4-5)
Protocol: as §1, §2

[3] = molecular target: T3, B. amyloliquefaciens subtilisin variant asn+166 (glycine+166 to asn) (Bacillus amyloliquefaciens, UniProt P00782, G273N)
T3 construct: codons for the mature subtilisin corresponding to that secreted by the B. amyloliquefaciens; made in house; host or cells: B. subtilis BG2036
Protocol: as §1, §2

[4] = molecular target: T4, B. amyloliquefaciens subtilisin variant glu+166 (E166; glycine+166 to glu) (Bacillus amyloliquefaciens, UniProt P00782, G273E)
T4 construct: codons for the mature subtilisin corresponding to that secreted by the B. amyloliquefaciens; made in house; host or cells: B. subtilis BG2036
Protocol: as §1, §2

[5] = molecular target: T5, B. amyloliquefaciens subtilisin variant ala+166 (A166; glycine+166 to ala) (Bacillus amyloliquefaciens, UniProt P00782, G273A)
T5 construct: codons for the mature subtilisin corresponding to that secreted by the B. amyloliquefaciens; made in house; host or cells: B. subtilis BG2036
Protocol: as §1, §2

[6] = molecular target: T6, B. amyloliquefaciens subtilisin variant lys+166 (glycine+166 to lys) (Bacillus amyloliquefaciens, UniProt P00782, G273K)
T6 construct: codons for the mature subtilisin corresponding to that secreted by the B. amyloliquefaciens; made in house; host or cells: B. subtilis BG2036
Protocol: as §1, §2

[7] = molecular target: T7, B. amyloliquefaciens subtilisin variant phe+166 (glycine+166 to phe) (Bacillus amyloliquefaciens, UniProt P00782, G273F)
T7 construct: codons for the mature subtilisin corresponding to that secreted by the B. amyloliquefaciens; made in house; host or cells: B. subtilis BG2036
Protocol: as §1, §2

[8] = molecular target: T8, B. amyloliquefaciens subtilisin variant hys+166 (glycine+166 to his) (Bacillus amyloliquefaciens, UniProt P00782, G273H)
T8 construct: codons for the mature subtilisin corresponding to that secreted by the B. amyloliquefaciens; made in house; host or cells: B. subtilis BG2036
Protocol: as §1, §2

[9] = molecular target: T9, B. amyloliquefaciens subtilisin variant arg+166 (glycine+166 to arg) (Bacillus amyloliquefaciens, UniProt P00782, G273R)
T9 construct: codons for the mature subtilisin corresponding to that secreted by the B. amyloliquefaciens; made in house; host or cells: B. subtilis BG2036
Protocol: as §1, §2

T1 sequence (P00782 108-382 G273D): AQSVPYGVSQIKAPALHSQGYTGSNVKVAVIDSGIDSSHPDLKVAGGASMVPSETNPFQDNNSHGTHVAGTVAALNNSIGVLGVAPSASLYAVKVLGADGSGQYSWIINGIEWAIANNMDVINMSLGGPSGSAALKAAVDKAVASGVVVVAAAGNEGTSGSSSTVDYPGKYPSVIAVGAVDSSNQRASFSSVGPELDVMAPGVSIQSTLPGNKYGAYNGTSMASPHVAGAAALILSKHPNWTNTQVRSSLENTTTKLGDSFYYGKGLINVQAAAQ
T4 sequence (P00782 108-382 G273E): as the sequence (P00782 108-382 G273D) above, with D166E counted along it
T7 sequence (P00782 108-382 G273F): as the sequence (P00782 108-382 G273D) above, with D166F counted along it
T2 sequence (P00782 108-382): as the sequence (P00782 108-382 G273D) above, with D166G counted along it
T3 sequence (P00782 108-382 G273N): as the sequence (P00782 108-382 G273D) above, with D166N counted along it
T6 sequence (P00782 108-382 G273K): as the sequence (P00782 108-382 G273D) above, with D166K counted along it
T9 sequence (P00782 108-382 G273R): as the sequence (P00782 108-382 G273D) above, with D166R counted along it
T8 sequence (P00782 108-382 G273H): as the sequence (P00782 108-382 G273D) above, with D166H counted along it
T5 sequence (P00782 108-382 G273A): as the sequence (P00782 108-382 G273D) above, with D166A counted along it

CC(C)[C@H](NC(=O)c1ccccc1)C(=O)NCC(=O)N[C@@H](CCCNC(=N)N)C(=O)Nc1ccc([N+](=O)[O-])cc1 [BVGRpN, benzoyl-L-Valyl-Glycyl-L-Arginyl-p-nitroanilide] (Bz-Val-Gly-Arg-pNA)
Kcat [1]: 2 s⁻¹
Km [1]: 41 µM
Km [2]: 1100 µM
Km [3]: 120 µM
Kcat [4]: 2 s⁻¹
Km [4]: 27 µM

C[C@H](NC(=O)CCC(=O)O)C(=O)N[C@@H](C)C(=O)N1CCC[C@H]1C(=O)N[C@@H](Cc1ccccc1)C(=O)Nc1ccc([N+](=O)[O-])cc1 [sAAPFpN, succinyl-L-Alanyl-L-Alanyl-L-Prolyl-L-Phenylalanyl-p-nitro-anilide] (Suc-AAPF-pNA)
Km [1]: 580 µM
Km [5]: 27 µM
Km [6]: 34 µM
Km [2]: 140 µM
Kcat [7]: 3 s⁻¹
Km [7]: 14 µM
Km [3]: 140 µM
Km [8]: 110 µM
Km [4]: 340 µM
Km [9]: 62 µM
